Source: article PMC6156078, “Thalidomide promotes degradation of SALL4, a transcription factor implicated in Duane Radial Ray syndrome” (eLife, 2018)

Columns and labels:
[1] = system: PPA1; assay: TMT proteomics H9 hESC: PPA1 abundance; format: cell-based, human; conditions: H9 hES cells, 5 h vs DMSO; thalidomide 10 µM, lenalidomide 5 µM
Text: (§1) We established a mass spectrometry-based workflow (Figure 1—figure supplement 1A) to detect IMiD-induced protein degradation in hESC.
(§2) Proteins were precipitated using methanol/chloroform.

[2] = system: HNRNPH1; assay: TMT proteomics H9 hESC: HNRNPH1 abundance; format: cell-based, human; conditions: H9 hES cells, 5 h vs DMSO; lenalidomide 5 µM
Text: as §1, §2

[3] = system: IMiD-dependent neo-substrates; assay: TMT proteomics profiling of IMiD-dependent neo-substrates (hESC, Kelly, SK-N-DZ, MM1s); format: cell-based, human; conditions: for number of substrates identified (rank order): H9 hESC proteomics; for substrates robustly degraded (each drug in addition to the preceding one): proteomics across hESC, MM1s, Kelly, SK-N-DZ cells
Text: as §1, §2

[4] = 2013, cited from earlier work
[5] = system: OGDH; assay: TMT proteomics MM1s cells: OGDH abundance; conditions: 5 h vs DMSO, lenalidomide 5 µM
[6] = system: ST14; assay: TMT proteomics MM1s cells: ST14 abundance; conditions: 5 h vs DMSO, lenalidomide 5 µM
[7] = system: HADHA; assay: TMT proteomics MM1s cells: HADHA abundance; conditions: 5 h vs DMSO, lenalidomide 5 µM
[8] = system: DYNC1H1; assay: TMT proteomics Kelly cells: DYNC1H1 abundance; conditions: 5 h vs DMSO, lenalidomide 5 µM
[9] = target: T1, SALL4 (Homo sapiens, UniProt Q9UJQ4); assay: TMT proteomics H9 hESC: SALL4 abundance; format: cell-based; conditions: H9 hES cells, 5 h vs DMSO; thalidomide 10 µM, lenalidomide 5 µM, pomalidomide 1 µM
Text: as §1, §2

[10] = target: T2, VRTN (Homo sapiens, UniProt Q9H8Y1); assay: TMT proteomics H9 hESC: VRTN abundance; format: cell-based; conditions: H9 hES cells, 5 h vs DMSO; thalidomide 10 µM, pomalidomide 1 µM
T2 construct: endogenous in cells; host or cells: H9 hESC
Text: as §1, §2

[11] = system: CYR61; assay: TMT proteomics H9 hESC: CYR61 abundance; format: cell-based, human; conditions: H9 hES cells, 5 h vs DMSO; thalidomide 10 µM
Text: as §1, §2

[12] = system: RPS17; RPS17L; assay: TMT proteomics H9 hESC: RPS17 abundance; format: cell-based, human; conditions: H9 hES cells, 5 h vs DMSO; thalidomide 10 µM
Text: as §1, §2

[13] = system: ACAD9; assay: TMT proteomics Kelly cells: ACAD9 abundance; format: cell-based, human; conditions: 5 h vs DMSO, thalidomide 10 µM
Text: as §2

[14] = system: PPP3R1; assay: TMT proteomics MM1s cells: PPP3R1 abundance; format: cell-based, human; conditions: 5 h vs DMSO, thalidomide 10 µM
Text: as §2

[15] = system: SALL4 mRNA; assay: Quantitative RT-PCR of total SALL4 mRNA in H9 hES cells; format: cell-based, human; conditions: 10 µM thalidomide, 24 h vs DMSO
Procedure: RNA was isolated using the RNeasy Plus mini kit (Qiagen) and cDNA created by reverse transcription using ProtoScript II reverse transcriptase (NEB) following the manufacturer’s instructions. The following primer sets from IDT were used with SYBR Green Master Mix (Applied Biosystems) to probe both GAPDH and total SALL4 levels:
Analysis was performed on a CFX Connect Real-Time PCR System (Bio-Rad) in a white 96-well PCR plate. Relative expression levels were calculated using the ΔΔCT method.

[16] = system: SALL4; assay: Western blot of SALL4 in CRBN-/- Kelly and HEK293T cells; format: cell-based, human; conditions: increasing concentrations, 24 h
[17] = target: hsSALL4ZnF2 / DDB1∆B-CRBN (Homo sapiens, UniProt Q96SW2+Q9UJQ4); assay: TR-FRET IMiD-dependent binding of SALL4ZnF2 to CRBN; conditions: DDB1∆B-CRBN 200 nM, hsSALL4ZnF2 100 nM
Text: The TR-FRET signal of each data point was extracted by calculating the 520/490 nm ratios.

[18] = target: Flag-hsSALL4^WT (Homo sapiens, UniProt Q9UJQ4); assay: Western blot of transfected Flag-hsSALL4 WT in Kelly cells; format: cell-based; conditions: 24 h
Procedure: (§3) For transient transfection, 0.2 million cells were seeded per well in a 12 well plate on day 1. On day 2, cells were transfected with 200–300 ng of plasmid (pNTM-Flag containing gene of interest) using 2 µL of lipofectamine 2000 transfection reagent (Invitrogen). On day 3, the desired concentration of IMiD was added to each well and cells were harvested after 24 h for western blot analysis using the protocol described above.

[19] = system: Flag-hsSALL4^G600A, hsSALL4^G600N; assay: Western blot of transfected Flag-hsSALL4 G600A/G600N in Kelly cells; format: cell-based, human; conditions: thalidomide, 24 h
Procedure: as §3

[20] = system: Flag-hsSALL4^G416A, Flag-hsSALL4^G416N; assay: Western blot of transfected Flag-hsSALL4 G416A/G416N in Kelly cells; format: cell-based, human; conditions: thalidomide, 24 h
Procedure: as §3

[21] = target: T3, mmSALL4 (Mus musculus, UniProt Q8BX22); assay: Western blot of mmSALL4 in mouse embryonic stem cells; format: cell-based; conditions: increasing concentrations, 24 h
T3 construct: endogenous in cells; host or cells: TC1 mouse embryonic stem cells

[22] = target: Flag-mmSALL4 containing a humanized ZnF2 (Y415F, P418S, I419V, L430F, Q435H) (UniProt Q8BX22+Q96SW2, I419V/L434F/P418S/Q435H/Y415F); assay: Western blot of Flag-mmSALL4 with humanized ZnF2 in Kelly cells; format: cell-based, mouse; conditions: thalidomide, 24 h
Procedure: as §3

[23] = system: chicken embryos; set-up: method as in Ito et al., 2010; conditions: direct application to the limb buds, ref Ito et al., 2010; cited from earlier work
[24] = system: zebrafish embryos; set-up: method as in Ito et al., 2010; conditions: ref Ito et al., 2010; cited from earlier work
[25] = target: IKZF1 (Homo sapiens, UniProt Q13422+Q96SW2); assay: TMT proteomics MM1s cells: IKZF1 abundance; conditions: 5 h vs DMSO, thalidomide 10 µM, lenalidomide 5 µM, pomalidomide 1 µM
[26] = target: IKZF3 (Homo sapiens, UniProt Q96SW2+Q9UKT9); assay: TMT proteomics MM1s cells: IKZF3 abundance; conditions: 5 h vs DMSO, thalidomide 10 µM, lenalidomide 5 µM, pomalidomide 1 µM
[27] = target: RAB28 (Homo sapiens, UniProt P51157); assay: TMT proteomics MM1s cells: RAB28 abundance; conditions: 5 h vs DMSO, thalidomide 10 µM, lenalidomide 5 µM, pomalidomide 1 µM
[28] = target: T4, ZFP91 (Homo sapiens, UniProt Q96JP5+Q96SW2); assay: TMT proteomics MM1s cells: ZFP91 abundance; conditions: 5 h vs DMSO, thalidomide 10 µM, lenalidomide 5 µM, pomalidomide 1 µM
[29] = target: T1, SALL4; assay: TMT proteomics Kelly cells: SALL4 abundance; conditions: 5 h vs DMSO, thalidomide 10 µM, lenalidomide 5 µM, pomalidomide 1 µM
[30] = target: T4, ZFP91; assay: TMT proteomics Kelly cells: ZFP91 abundance; conditions: 5 h vs DMSO, thalidomide 10 µM, lenalidomide 5 µM, pomalidomide 1 µM
[31] = target: ZNF692 (Homo sapiens, UniProt Q96SW2+Q9BU19); assay: TMT proteomics Kelly cells: ZNF692 abundance; conditions: 5 h vs DMSO, thalidomide 10 µM, lenalidomide 5 µM, pomalidomide 1 µM
[32] = target: ZNF827 (Homo sapiens, UniProt Q17R98+Q96SW2); assay: TMT proteomics Kelly cells: ZNF827 abundance; conditions: 5 h vs DMSO, thalidomide 10 µM, lenalidomide 5 µM, pomalidomide 1 µM
[33] = target: T1, SALL4; assay: Western blot of SALL4 in Kelly, SK-N-DZ, HEK293T and H661 cells; conditions: increasing concentrations, 24 h
[34] = target: T1, SALL4; assay: Western blot of SALL4 in H9 hESC; format: cell-based; set-up: endogenous in cells; host or cells: Kelly, H9 hESC, SK-N-DZ cells; conditions: increasing doses, 24 h

T3 sequence (Q8BX22 whole entry): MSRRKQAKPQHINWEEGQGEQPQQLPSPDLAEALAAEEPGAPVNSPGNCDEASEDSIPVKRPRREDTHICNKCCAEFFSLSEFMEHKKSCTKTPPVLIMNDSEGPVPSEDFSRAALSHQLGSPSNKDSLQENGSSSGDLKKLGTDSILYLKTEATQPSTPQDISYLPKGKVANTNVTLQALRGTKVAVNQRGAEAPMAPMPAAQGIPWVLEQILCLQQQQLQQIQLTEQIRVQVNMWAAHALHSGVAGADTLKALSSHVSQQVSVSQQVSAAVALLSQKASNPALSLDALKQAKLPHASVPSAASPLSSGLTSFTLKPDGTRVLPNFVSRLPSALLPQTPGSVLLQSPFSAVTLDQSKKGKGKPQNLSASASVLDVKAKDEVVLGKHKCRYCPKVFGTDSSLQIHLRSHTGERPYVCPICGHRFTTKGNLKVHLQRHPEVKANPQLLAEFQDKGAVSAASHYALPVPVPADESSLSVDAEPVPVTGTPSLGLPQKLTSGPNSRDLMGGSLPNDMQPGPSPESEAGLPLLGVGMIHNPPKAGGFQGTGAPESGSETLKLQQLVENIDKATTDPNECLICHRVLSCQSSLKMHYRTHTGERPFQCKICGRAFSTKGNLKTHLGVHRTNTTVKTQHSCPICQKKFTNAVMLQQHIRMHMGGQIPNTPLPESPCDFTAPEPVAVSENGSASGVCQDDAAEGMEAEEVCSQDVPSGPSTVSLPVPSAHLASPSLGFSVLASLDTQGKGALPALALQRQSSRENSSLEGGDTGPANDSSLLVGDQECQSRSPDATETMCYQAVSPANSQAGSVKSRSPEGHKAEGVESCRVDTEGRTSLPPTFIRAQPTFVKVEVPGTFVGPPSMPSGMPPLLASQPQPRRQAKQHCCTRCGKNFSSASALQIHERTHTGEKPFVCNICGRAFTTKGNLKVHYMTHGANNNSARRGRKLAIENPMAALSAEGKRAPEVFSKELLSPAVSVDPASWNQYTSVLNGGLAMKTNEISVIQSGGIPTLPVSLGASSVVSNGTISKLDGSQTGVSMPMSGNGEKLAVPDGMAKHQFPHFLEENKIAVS
T2 sequence (Q9H8Y1 whole entry): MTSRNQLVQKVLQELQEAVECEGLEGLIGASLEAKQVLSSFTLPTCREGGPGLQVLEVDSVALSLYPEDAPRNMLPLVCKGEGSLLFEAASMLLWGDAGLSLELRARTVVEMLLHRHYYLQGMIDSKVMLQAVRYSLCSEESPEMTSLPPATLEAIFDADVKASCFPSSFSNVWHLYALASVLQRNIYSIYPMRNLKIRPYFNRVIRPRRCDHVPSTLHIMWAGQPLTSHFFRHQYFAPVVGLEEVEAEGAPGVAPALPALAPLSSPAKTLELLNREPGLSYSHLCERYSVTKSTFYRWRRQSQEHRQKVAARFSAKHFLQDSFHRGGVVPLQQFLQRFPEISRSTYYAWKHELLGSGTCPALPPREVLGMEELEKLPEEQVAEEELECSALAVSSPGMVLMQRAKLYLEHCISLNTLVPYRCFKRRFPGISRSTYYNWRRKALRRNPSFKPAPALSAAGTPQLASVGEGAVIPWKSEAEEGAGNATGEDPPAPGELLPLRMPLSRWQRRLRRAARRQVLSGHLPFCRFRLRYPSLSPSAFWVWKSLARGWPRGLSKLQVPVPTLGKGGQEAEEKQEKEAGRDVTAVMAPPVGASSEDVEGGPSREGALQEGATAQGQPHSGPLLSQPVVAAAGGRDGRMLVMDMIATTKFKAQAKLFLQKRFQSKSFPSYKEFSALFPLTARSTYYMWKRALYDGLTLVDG
Sequence of Flag-hsSALL4^WT (Q9UJQ4 whole entry): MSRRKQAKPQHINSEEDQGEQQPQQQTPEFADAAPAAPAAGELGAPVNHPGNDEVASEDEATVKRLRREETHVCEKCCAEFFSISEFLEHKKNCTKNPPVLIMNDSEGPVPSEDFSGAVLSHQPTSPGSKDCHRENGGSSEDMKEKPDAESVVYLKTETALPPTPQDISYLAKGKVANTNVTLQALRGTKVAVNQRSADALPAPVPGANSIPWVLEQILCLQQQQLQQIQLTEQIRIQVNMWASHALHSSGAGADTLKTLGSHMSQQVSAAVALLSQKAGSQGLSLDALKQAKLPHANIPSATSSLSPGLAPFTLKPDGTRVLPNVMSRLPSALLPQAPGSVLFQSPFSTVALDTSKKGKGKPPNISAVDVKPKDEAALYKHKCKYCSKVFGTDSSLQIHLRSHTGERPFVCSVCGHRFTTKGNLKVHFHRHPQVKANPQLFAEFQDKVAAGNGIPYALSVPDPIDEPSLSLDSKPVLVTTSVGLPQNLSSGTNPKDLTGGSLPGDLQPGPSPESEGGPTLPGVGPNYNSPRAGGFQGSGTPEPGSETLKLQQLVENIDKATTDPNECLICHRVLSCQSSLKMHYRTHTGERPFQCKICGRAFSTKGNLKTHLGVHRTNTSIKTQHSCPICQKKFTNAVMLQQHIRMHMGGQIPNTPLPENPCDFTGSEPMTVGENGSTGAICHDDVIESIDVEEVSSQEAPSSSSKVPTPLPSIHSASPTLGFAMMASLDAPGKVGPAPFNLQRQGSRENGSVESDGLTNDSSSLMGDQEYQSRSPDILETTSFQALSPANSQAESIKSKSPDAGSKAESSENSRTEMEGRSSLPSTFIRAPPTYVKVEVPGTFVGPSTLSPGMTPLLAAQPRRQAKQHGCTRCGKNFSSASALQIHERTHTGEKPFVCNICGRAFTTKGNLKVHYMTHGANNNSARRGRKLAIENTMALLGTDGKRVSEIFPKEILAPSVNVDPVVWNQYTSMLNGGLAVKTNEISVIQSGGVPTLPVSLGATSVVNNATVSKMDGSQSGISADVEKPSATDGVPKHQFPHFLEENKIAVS

## Nc1cccc2c1CN(C1CCC(=O)NC1=O)C2=O (stereo not drawn) [lenalidomide]
[1]
  logFC PPA1: -0.1919
[2]
  logFC HNRNPH1: 0.1553
[3]
  number of substrates identified (rank order): Thal < Len << Pom
  substrates robustly degraded (each drug in addition to the preceding one): ZNF827, FAM83F, and RAB28 along with the lenalidomide-specific substrate CSNK1A1
[3]; H9 hESC, 5 h, 5 µM lenalidomide, 1 µM pomalidomide
  proteins degraded upon treatment (besides SALL4): CSNK1A1
[4]; typical dose 200–400 mg thalidomide, 25 mg lenalidomide, 2 mg pomalidomide, ref Chen et al., 2017, Hoffmann et al., Teo et al., 2004
  plasma half-life (t1/2): ~ 3 h
[5]
  logFC OGDH: 0.1359
[6]
  logFC ST14: -0.1872
[7]
  logFC HADHA: 0.1826
[8]
  logFC DYNC1H1: 0.04048

## O=C1CCC(N2C(=O)c3ccccc3C2=O)C(=O)N1 (stereo not drawn) [thalidomide]
[9]
  logFC SALL4: -1.582
[10]
  logFC VRTN: -0.4098
[1]
  logFC PPA1: -0.1282
[11]
  logFC CYR61: 0.4402
[12]
  logFC RPS17; RPS17L: -0.1321
[13]
  logFC ACAD9: 0.09357
[14]
  logFC PPP3R1: -0.2263
[3]
  number of substrates identified (rank order): Thal < Len << Pom
  substrates robustly degraded (each drug in addition to the preceding one): ZNF692, SALL4, and the ubiquitin ligase RNF166
[15]
  SALL4 mRNA level (qPCR, normalized to GAPDH): upregulates SALL4 mRNA
[15]; listed as Thalidomide
  SALL4 mRNA level (qPCR, normalized to GAPDH): did not influence the expression of SALL4 mRNA
[16]
  SALL4 degradation in CRBN-/- cells: no degradation of SALL4 was observed
[17]
  rank order in binding observed with ZnF2: Pom >Thal >> Len
[18]
  degradation of ectopically expressed Flag-hsSALL4 wild type: readily degraded
[19]
  degradation of Flag-SALL4 with G600A or G600N mutations in ZnF4: readily degraded
[20]
  degradation of Flag-SALL4 with G416A or G416N mutations in ZnF2: rendered SALL4 stable
[21]
  degradation of mmSALL4 in mESC: does not promote degradation of mmSALL4
[22]
  degradation of mmSALL4 with humanized ZnF2 domain: induce thalidomide-mediated mouse SALL4 degradation
[4]; ref Bai et al., Dahut et al., 2009
  plasma concentration in humans: ≤ 10 µM
[4]; typical dose 200–400 mg thalidomide, 25 mg lenalidomide, 2 mg pomalidomide, ref Chen et al., 2017, Hoffmann et al., Teo et al., 2004, read-out: maximum plasma concentration (Cmax)
  Cmax: 5 to 10 µM
[23]
  dose found to be teratogenic: 400 µM
[24]
  dose found to be teratogenic: 400 µM
[25]
  logFC IKZF1: -0.3052
[26]
  logFC IKZF3: -0.3448
[27]
  logFC RAB28: -0.4948
[28]
  logFC ZFP91: -0.6875
[29]
  logFC SALL4: -1.628
[30]
  logFC ZFP91: -0.2749
[31]
  logFC ZNF692: -2.248
[32]
  logFC ZNF827: -0.4132
[33]
  SALL4 protein levels (western blot): dose-dependent decrease in SALL4 protein levels
[34]
  SALL4 protein levels (western blot): dose-dependent decrease in protein levels
